Assay results reported in patent US8288107B2, “Materials and methods for detecting interaction of CFTR polypeptides” (Florida State University Research Foundation, priority 1999, dated 2012).

Legend:
YRG2-ΔF strain = assay: Colony formation on SC-HIS-LEU-TRP media, YRG2-ΔF strain; type: cell-based, yeast; details: 1.5 mM in SC-HIS-LEU-TRP media; 30° C.; three days
Description: (§1) When the YRG2-ΔF strain was streaked onto solid media (SC-HIS, -LEU, -TRP) and incubated at 21° C., colonies formed within three days (Table 2). The YRG2-ΔF colonies were approximately the same size as colonies produced by YRG2-WT grown under the same conditions. However, when YRG2-ΔF was streaked onto SC-HIS-LEU-TRP solid media and incubated at 30° C., only small colonies were apparent after three days (substantially smaller in size than YRG2-WT colonies grown under the same growth conditions). Colonies were not apparent (or were detectable only as extremely small micro-colonies) when YRG2-ΔF was streaked onto solid SC-HIS, -LEU, -TRP media and incubated at 34° C. The ΔF508 mutation thus conferred a temperature-sensitive HIS+ phenotype to the yeast strain containing pADPN-ΔF and pBDPN-ΔF. To further enhance the temperature-sensitive HIS− colony phenotype of the YRG2-ΔF strain relative to the YRG2-WT strain, it is advantageous to incorporate 3-amino-1,2,4-triazole at a concentration of 1.5 mM into the SC-HIS-LEU-TRP media.
To use the YRG2-ΔF strain for screening purposes, a lawn of the YRG2-ΔF strain is spread onto selective media. This media contains yeast nitrogen base and all amino acids except for histidine, leucine, and tryptophan. The media also contains 3-amino 1,2,4-triazole at a concentration of 1.5 mM. […]

YRG2-WT strain = assay: Colony formation on SC-HIS-LEU-TRP media, YRG2-WT strain; type: cell-based, yeast; details: 1.5 mM in SC-HIS-LEU-TRP media; 30° C.; three days
Description: as §1

[1] = molecular target: T1, NBD1 ΔF508 domain of CFTR (dimerization) (Homo sapiens, UniProt P13569, DEL508-508/V470M); assay: Yeast two-hybrid growth assay with YRG2-ΔF strain on selective media lacking histidine; type: cell-based; details: 1.5M glycerol in growth media; 37° C.; media lacking leucine, tryptophan and histidine
T1 construct: expressed in transfected cells; host or cells: Saccharomyces cerevisiae strain YRG2 (Stratagene), transformed with pBDPN-ΔF and pADPN-ΔF = YRG2-ΔF
Description: FIGS. 2A-2C show growth of two-hybrid yeast strains containing wildtype and mutant CFTR NBD1. The yeast strain YRG2 was transformed with pADGAL4 and pBDGAL4 constructs containing wildtype and mutant CFTR NBD1 as indicated. Each strain was grown in synthetic complete media lacking leucine and tryptophan, and equal aliquots of cells in 10-fold dilutions were spotted to synthetic complete media lacking leucine, tryptophan and histidine. Dilutions for each strain proceed from right to left, with the spots from most dilute cultures corresponding to the tapered end of the triangle. Plates were incubated at either 21° C. (FIG. 2A) or 37° C. (FIG. 2B) (for 3 days and 5 days respectively). Glycerol was added to the media to a final concentration of 1.5 M as indicated (1.5 M Glyc) (FIG. 2C).
The present invention concerns methods for screening chemical compounds for drug candidates with activity to correct the dimerization defect associated with mutant CFTR NBD1 containing the ΔF508 mutation. […] If the sample tested is a pure compound, the compound can then be analyzed further in secondary assays to determine its activity to restore CFTRΔF508 cAMP-stimulated chloride channel activity in mammalian cells expressing CFTRΔF508 (Sheppard et al., 1994). […]

T1 sequence (P13569 with tags, fused parts or gaps V470M/DEL508-508): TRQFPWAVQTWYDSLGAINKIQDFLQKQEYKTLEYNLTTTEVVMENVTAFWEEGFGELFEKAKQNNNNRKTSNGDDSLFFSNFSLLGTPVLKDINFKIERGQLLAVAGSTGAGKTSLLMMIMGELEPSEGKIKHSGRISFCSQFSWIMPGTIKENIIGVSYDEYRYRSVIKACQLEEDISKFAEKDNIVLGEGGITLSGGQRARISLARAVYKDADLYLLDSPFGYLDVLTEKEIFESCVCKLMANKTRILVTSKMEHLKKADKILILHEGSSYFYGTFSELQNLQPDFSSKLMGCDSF
T1 sequence (P13569 with tags, fused parts or gaps V470M/DEL508-508): as above

Compound | colony formation of YRG2-ΔF strain (YRG2-ΔF strain) | colony formation of YRG2-WT strain (YRG2-WT strain) | rescue of temperature-sensitive dimerization of mutant NBD1 containing ΔF508 [1]
Nc1nc[nH]n1 [3-amino-1,2,4-triazole] | prevents colony formation | does not inhibit colony formation | –
OCC(O)CO [glycerol] | – | – | rescued
